# Measurements reported in ChEMBL document CHEMBL5303711, “ECBD screening data for assay EOS300108” (2023).
# Structures can show the parent of a compound that is named as a salt. Activity calls are given as the source filed them. The rule behind the calls is not given here.
# Test: Cytotoxicity activity against human HepG2 cells assessed by CellTiter-Glo luminescent cell viability assay.
# Assay type: toxicity, cell-based
# Set-up: assay stage confirmatory assay, source tissue liver
# Conditions: HepG2 cells, read-out: IC50 relative
row,SMILES,CC50
1,CCN1CCS/C1=C\C=C\C1=[N+](CC)CCS1,6.3 µM (active)
2,Cc1oc2c(c1C(=O)c1ccc(Cl)cc1)C(=O)C(=O)c1ccccc1-2,31.4 µM (inactive)
3,O=C(Nc1nnc(-c2ccccc2)o1)c1cccc(S(=O)(=O)N2CCOCC2)c1,8.9 µM (active)
4,COc1ccc(NC(=O)c2cc(-c3ccccc3O)no2)cc1,12.3 µM (active)
5,O=C1C=C(N(CCO)Cc2ccccc2)c2ccccc2C1=O,4.4 µM (active)
6,CN(C)/C=C/C=C/C=C/C1=[N+](C)c2ccccc2C1(C)C,10.3 µM (active)
7,CC(C)c1ccc(S(=O)(=O)/N=C2/C=C(Sc3nc[nH]n3)C(=O)c3ccccc32)cc1,5.8 µM (active)
8,O=S(=O)(Nc1cc(Sc2nc[nH]n2)c(O)c2ccccc12)c1ccc(Cl)cc1,5.7 µM (active)
9,COc1cccc2c1C(=O)c1c(O)c3c(c(O)c1C2=O)CC(O)(C(=O)CO)CC3OC1CC(N)C(O)C(C)O1 (centres undefined),0.4 µM (active)
10,C=C(C)[C@@H]1Cc2c(ccc3c2O[C@H]2COc4cc(OC)c(OC)cc4[C@H]2C3=O)O1,0.3 µM (active)
11,Cc1ccc(S(=O)(=O)/N=C2\C=C(Sc3nc[nH]n3)C(=O)c3ccccc32)cc1,4.8 µM (active)
12,Cc1cc(OCC(=O)Nc2nc(-c3ccccn3)cs2)no1,8.8 µM (active)
13,CCN(C)C[C@H]1CCN(Cc2ccc(OCc3ccccc3F)nc2)C1,6.7 µM (active)
14,Cc1ccc(-c2nc(C#N)c(S(=O)(=O)N(C)CCO)o2)cc1,7.3 µM (active)
15,F[C@H](c1nc(-c2ccc(OCc3cccnc3)cc2)no1)C1CNC1,8.2 µM (active)
16,C#CC(=O)NCCNc1nc(C)nc(C)c1Br,0.8 µM (active)
17,CCc1cccc2c(C3CCNCC3)c[nH]c12,11.4 µM (active)
18,CCNc1cc2[o+]c3cc(NCC)c(C)cc3c(-c3ccccc3C(=O)OCC)c2cc1C,1 µM (active)
19,CCN(CC)Cc1ccccc1CNC(=O)N(CC)C[C@H]1COc2ccccc2O1,10.8 µM (active)
20,O=C(Nc1ncccc1O)c1ccc(OCc2cn3ccccc3n2)cc1,6.7 µM (active)
21,COc1ccc(OC)c(C(=O)Nc2nc3ccccc3[nH]2)c1,4.7 µM (active)
22,CCCCOc1ccc(C(=O)N2CCN(S(=O)(=O)c3ccc4c(c3)OCCCO4)CC2)cc1,3.2 µM (inactive)
23,Cc1occc1C(=O)Nc1ccc(N2CCCC2)cn1,8.8 µM (active)

row,SMILES,CC50
1,Cc1cc(N)n(S(=O)(=O)c2oc(-c3ccccc3)nc2C#N)n1,7.6 µM (active)
2,Cc1ccccc1-c1nc(C#N)c(NCC(C)N2CCN(C)CC2)o1 (centres undefined),10.8 µM (active)
3,COc1ccc2nc(NC(=O)CN3C(=O)c4ccccc4S3(=O)=O)sc2c1,14.8 µM (inactive)
4,N#Cc1cc(NC[C@H](O)c2ccco2)nc2ccc(Cl)cc12,1.3 µM (active)
5,Fc1ccc2[nH]c(CCNc3ncc(Cl)cn3)nc2c1,6.7 µM (active)
6,O=C1COc2cc(C(=O)Nc3nc(-c4ccccn4)cs3)ccc2N1,1.5 µM (active)
7,CCC1(CC)CCN(c2ncnc3[nH]ccc23)CC1,8.3 µM (active)
8,CC(C)(C)n1c(NC(=O)c2ccncc2)nc2ccccc21,15.2 µM (active)
9,CC1(C)[C@H]2CC=C(CCNC(=O)C3CCN(C(=O)c4ccccn4)CC3)[C@@H]1C2,4.5 µM (inactive)
10,CC(C)c1ccc(CN2CCN(C(=O)CN(C)C(=O)c3ccco3)CC2)cc1,4.4 µM (active)
11,COc1ccc(CCN2Cc3ccc(N)cc3C2)cc1,20.2 µM (inactive)
12,CCc1ccc(NC(=O)c2nc(S(C)(=O)=O)ncc2Br)cc1,3 µM (active)
13,COCC1CCN(Cc2ccc(C(C)C)cc(O)c2=O)CC1,11.8 µM (active)
14,COc1ccc(Cl)cc1CNCC1CCN(C[C@H](C)O)CC1,10.2 µM (active)
15,CC(C)c1ccc(CNCCN2CCCCC2CO)cc1 (centres undefined),4.3 µM (active)
16,CCN(CC)c1ccc(/C=C/C2=[N+](C)c3ccccc3C2(C)C)cc1,1.2 µM (active)
17,Cc1nn(-c2cccc(Cl)c2)nc1C(=O)NC1CCN(C)CC1,9.4 µM (active)
18,CC1CCC/C=C\C2CC(O)CC2C(O)/C=C\C(=O)O1 (centres undefined),< 0.1 µM (active)
19,COc1c(Br)cc(Cl)cc1S(=O)(=O)N1CCC[C@H](N)C1,16.1 µM (inactive)
20,O=C(Nc1cccnc1)N1CCN(c2ccc(S(=O)(=O)N3CCOCC3)cn2)CC1,2.5 µM (active)
21,Cc1ccc(-c2cccc(CN3[C@@H]4CC[C@H]3[C@H]3CNC[C@H]34)c2)o1,8.8 µM (active)
22,Cc1cccc(OC[C@@H](O)CN2CCC(C(=O)N3CCc4ccccc43)CC2)c1,11.3 µM (active)
23,O=C(Cn1ncc(Cl)c(Cl)c1=O)N1CCC[C@H]1c1ccc2c(c1)OCCCO2,7.1 µM (active)

row,SMILES,CC50
1,O=C(NCCc1ccco1)c1cc2ccccc2cc1O,8.5 µM (active)
2,CCN(CC)c1cc(C)nc(Nc2ccc(NC(=O)C(C)C)cc2)n1,6.8 µM (active)
3,CCn1c(SCc2cc(=O)n3ccsc3n2)nc2sc(C)c(C)c2c1=O,20.2 µM (inactive)
4,Cc1cc(N2CCN([C@@H](C)C(=O)Nc3ccc(C#N)cc3)CC2)nc(C(C)C)n1,11.2 µM (active)
5,C[C@@H](NC1CCN(c2ccc(F)c(F)c2)CC1)[C@@H](O)c1ccc(O)cc1,14.6 µM (active)
6,Cc1cc(C)cc(OC[C@@H](O)CN2CCC(C(=O)Nc3ccccc3)CC2)c1,12.1 µM (active)
7,N[C@@H](Cc1ccccc1)C(=O)N1C/C(=C\c2ccc(Cl)c(Cl)c2)C(=O)/C(=C/c2ccc(Cl)c(Cl)c2)C1,7.9 µM (active)
8,CCN(C(=O)c1ccc(-n2ccnc2)nc1)S(=O)(=O)c1ccc(C)cc1,11.7 µM (inactive)
9,COc1ncccc1-c1csc(-c2ccoc2)n1,1 µM (active)
10,Clc1cccc(N2CCN(C[C@H]3CCC4(CNC4)O3)CC2)c1,7 µM (active)
11,O=C(Nc1ccc(Cn2cnc3ccccc32)cc1)c1ccc(=O)[nH]n1,9.7 µM (inactive)
12,CC[n+]1c(/C=C2/C=CN(C)c3ccccc32)ccc2ccccc21,2.3 µM (active)
13,CCOc1ccc(S(=O)(=O)N(C)c2ccccc2)cc1,7.5 µM (inactive)
14,CN[C@H]1CCCN(C(=O)c2ccc(CN)cc2)C1,14.3 µM (inactive)
15,CCOC(=O)CNS(=O)(=O)c1cc(-c2nnc(Nc3cccc(O)c3)c3ccccc23)ccc1C,4.1 µM (active)
16,Cn1ncnc2c(=O)n(C)c(=O)nc1-2,0.2 µM (active)
17,CCN(CC)C(=S)SSC(=S)N(CC)CC,0.3 µM (inactive)
18,O=C(c1ccc(F)c(F)c1Nc1ccc(I)cc1F)N1CC(O)(C2CCCCN2)C1 (racemic),< 0.1 µM (active)
19,O=C1Nc2cc(Br)ccc2/C1=C1/Nc2ccccc2/C1=N\O [6BIO],26.5 µM (inactive)
20,CCc1c2c(nc3ccc(O)cc13)-c1cc3c(c(=O)n1C2)COC(=O)[C@]3(O)CC [7-ETHYL-10-HYDROXYCAMPTOTHECIN],0.2 µM (active)
21,Nc1nc2nn[nH]c2c(=O)[nH]1 [8-AZAGUANINE],7.5 µM (active)
22,CN(C)CC#Cc1ccc(OCCCc2sc(N3CCc4cccc(C(=O)Nc5nc6ccccc6s5)c4C3)nc2C(=O)O)c(F)c1 [A-1155463],2.3 µM (active)
23,CN(C)CC[C@H](CSc1ccccc1)Nc1ccc(S(=O)(=O)NC(=O)c2ccc(N3CCN(Cc4ccccc4-c4ccc(Cl)cc4)CC3)cc2)cc1[N+](=O)[O-] [ABT 737],13.2 µM (active)

row,SMILES,CC50
1,C=CCn1c(=O)c2cnc(Nc3ccc(N4CCN(C)CC4)cc3)nc2n1-c1cccc(C(C)(C)O)n1 [ADAVOSERTIB],4.5 µM (active)
2,CCN1CCN(Cc2ccc(-c3cc4c(N[C@H](C)c5ccccc5)ncnc4[nH]3)cc2)CC1 [AEE-788],4.1 µM (active)
3,CN(C)C/C=C/C(=O)Nc1cc2c(Nc3ccc(F)c(Cl)c3)ncnc2cc1O[C@H]1CCOC1 [AFATINIB DIMALEATE],2.3 µM (active)
4,CC/C(=C(\c1ccc(O)cc1)c1ccc(OCCN(C)C)cc1)c1ccccc1 [AFIMOXIFENE],3.9 µM (active)
5,CCc1cc2c(cc1N1CCC(N3CCOCC3)CC1)C(C)(C)c1[nH]c3cc(C#N)ccc3c1C2=O [ALECTINIB],18.9 µM (inactive)
6,CNC(=O)[C@@H](c1ccccc1)N1CCc2cc(OC)c(OC)cc2[C@@H]1CCc1ccc(C(F)(F)F)cc1 [ALMOREXANT],20.4 µM (inactive)
7,Cc1nc(NC(=O)N2CCC[C@H]2C(N)=O)sc1-c1ccnc(C(C)(C)C(F)(F)F)c1 [ALPELISIB],6.1 µM (active)
8,O=C(Nc1cc(Oc2cc(F)c(NC(=O)C3(C(=O)Nc4ccc(F)cc4)CC3)cc2F)ccn1)C1CC1 [ALTIRATINIB],0.2 µM (active)
9,Cc1csc(-c2nnc(Nc3ccc(Oc4ncccc4-c4ccnc(N)n4)cc3)c3ccccc23)c1 [AMG-900],25.4 µM (inactive)
10,Nc1nc(N)c2nc(CNc3ccc(C(=O)N[C@@H](CCC(=O)O)C(=O)O)cc3)cnc2n1 [AMINOPTERIN],0.1 µM (active)
11,CCN(CC)Cc1cc(Nc2ccnc3cc(Cl)ccc23)ccc1O [AMODIAQUINE HYDROCHLORIDE],3 µM (active)
12,COc1cc(NS(C)(=O)=O)ccc1Nc1c2ccccc2nc2ccccc12 [AMSACRINE],2.7 µM (active)
13,COc1ccc(C[C@H]2NC[C@H](O)[C@H]2OC(C)=O)cc1 [ANISOMYCIN],0.3 µM (active)
14,Cc1c(CN2CCN(C(=O)[C@H](C)O)CC2)sc2c(N3CCOCC3)nc(-c3cnc(N)nc3)nc12 [APITOLISIB],1.5 µM (active)
15,C[C@@H](O[C@H]1OCCN(Cc2n[nH]c(=O)[nH]2)[C@H]1c1ccc(F)cc1)c1cc(C(F)(F)F)cc(C(F)(F)F)c1 [APREPITANT],14.8 µM (inactive)
16,NCC(=O)Nc1ccc(-n2nc(C(F)(F)F)cc2-c2ccc3c(ccc4ccccc43)c2)cc1 [AR-12],50 µM (inactive)
17,COc1cc(C[C@H]2C(=O)OC[C@@H]2Cc2ccc(OC)c(OC)c2)ccc1O [ARCTIGENIN],2.6 µM (active)
18,O=C1CCc2ccc(OCCCCN3CCN(c4cccc(Cl)c4Cl)CC3)cc2N1 [ARIPIPRAZOLE],25.6 µM (inactive)
19,COc1ccc(CCN2CCC(Nc3nc4ccccc4n3Cc3ccc(F)cc3)CC2)cc1 [ASTEMIZOLE],1.5 µM (active)
20,O=C(NC1CCNCC1)c1n[nH]cc1NC(=O)c1c(Cl)cccc1Cl [AT-7519],0.2 µM (active)
